This passage reports IC50 and EC50 results from US20250034136A1 (Nimbus Wadjet, Inc., priority 2023, published 2025).

Molecules are shown by their SMILES.

Assay [1] has as its target WRN (BV08), human Werner helicase (Uniprot Q14191, amino acids 517-1235 with L1074F point mutation) (Homo sapiens (Human), UniProt Q14191, L1074F). The assay is described as follows: WRN (BV08) ADP-Glo assay. It is filed as biochemical. Particulars: class symbols A-E, read-out: ADP-Glo_hWRN_IC50. For orientation: In ADP-Glo the light output rises with the ADP produced.
Assay [2] has as its system p21 induction in HCT116 cells. The experiment in a line: p21 induction in HCT116 cells. The format is cell-based. The note with it: Homo sapiens, HCT-116, 24 h, HCT116 cells, 24 h compound incubation; read-out: P21_EC50. A digest of the protocol: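 EC50 from non-linear curve fit of p21 immunofluorescence (800 nm), with GAPDH (700 nm) read alongside. DMSO and a reference WRN inhibitor served as low and high controls. Cells (2,000/well) got 11 compound concentrations in duplicate for 24 h at 37 °C.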

Sequence of WRN (BV08), human Werner helicase (Uniprot Q14191, amino acids 517-1235 with L1074F point mutation) (Q14191 other isoform, or with tags, fused parts or gaps L1074F (already in the parent)): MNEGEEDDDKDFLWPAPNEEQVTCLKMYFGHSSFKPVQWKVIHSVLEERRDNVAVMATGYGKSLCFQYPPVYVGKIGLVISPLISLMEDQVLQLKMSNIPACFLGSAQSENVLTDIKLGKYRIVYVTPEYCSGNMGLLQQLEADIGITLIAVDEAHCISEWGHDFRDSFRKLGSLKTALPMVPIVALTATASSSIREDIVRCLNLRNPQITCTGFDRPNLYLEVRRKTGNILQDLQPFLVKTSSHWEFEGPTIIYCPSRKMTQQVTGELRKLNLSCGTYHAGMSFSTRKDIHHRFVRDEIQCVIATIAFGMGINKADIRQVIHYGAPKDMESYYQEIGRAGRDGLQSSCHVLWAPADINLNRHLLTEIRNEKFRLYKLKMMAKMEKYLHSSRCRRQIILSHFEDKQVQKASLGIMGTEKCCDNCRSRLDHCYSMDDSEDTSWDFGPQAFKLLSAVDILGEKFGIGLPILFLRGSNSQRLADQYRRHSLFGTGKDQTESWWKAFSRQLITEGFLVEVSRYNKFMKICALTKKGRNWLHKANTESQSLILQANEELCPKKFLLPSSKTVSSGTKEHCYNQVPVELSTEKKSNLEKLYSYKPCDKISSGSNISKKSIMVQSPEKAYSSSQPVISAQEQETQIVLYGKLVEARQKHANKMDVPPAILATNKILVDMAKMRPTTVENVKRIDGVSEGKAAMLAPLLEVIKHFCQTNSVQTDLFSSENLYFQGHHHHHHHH

Take `CCc1c(N2CCN(C(=O)c3ncnc(C)c3O)[C@H]3CC[C@@H]32)c(=O)c2nc(-c3ccnc(OC)c3)cnc2n1CC(=O)Nc1ccc(C(F)(F)F)cc1Cl` [I-283, N-[2-chloro-4-(trifluoromethyl)phenyl]-2-{6-ethyl-7-[(1S,6S)-5-(5-hydroxy-6-methylpyrimidine-4-carbonyl)-2,5-diazabicyclo[4.2.0]octan-2-yl]-2-(2-methoxypyridin-4-yl)-8-oxo-5H,8H-pyrido[2,3-b]pyrazin-5-yl}acetamide]: the IC50 in assay [1] was no more than 5 nM. In assay [2], the EC50 is less than 500 nM.

Consider `CCc1c(N2CCN(C(=O)c3ncnc(C)c3O)[C@H]3CC[C@@H]32)c(=O)c2nc(C3=CCOCC3)cnc2n1CC(=O)Nc1ccc(C(F)(F)F)cc1Cl` [I-284, N-[2-chloro-4-(trifluoromethyl)phenyl]-2-[2-(3,6-dihydro-2H-pyran-4-yl)-6-ethyl-7-[(1S,6S)-5-(5-hydroxy-6-methylpyrimidine-4-carbonyl)-2,5-diazabicyclo[4.2.0]octan-2-yl]-8-oxo-5H,8H-pyrido[2,3-b]pyrazin-5-yl]acetamide], for which the IC50 in assay [1] lay within 5 to 50 nM. Further, in assay [2], the EC50 was less than 500 nM.

For the compound `CCc1c(N2CCN(C(=O)c3ncnc(C)c3O)[C@H]3CC[C@@H]32)c(=O)c2nc(CN3CCOCC3)cnc2n1CC(=O)Nc1ccc(C(F)(F)F)cc1Cl` [I-285, N-[2-chloro-4-(trifluoromethyl)phenyl]-2-{6-ethyl-7-[(1S,6S)-5-(5-hydroxy-6-methylpyrimidine-4-carbonyl)-2,5-diazabicyclo[4.2.0]octan-2-yl]-2-[(morpholin-4-yl)methyl]-8-oxo-5H,8H-pyrido[2,3-b]pyrazin-5-yl}acetamide], the IC50 in assay [1] fell in the range of 5 to 50 nM. In addition, in assay [2], the EC50 was in the range of 500 to 2000 nM.

Consider `CCc1c(N2CCN(C(=O)c3c(OC)ncc(C4CC4)c3O)[C@H]3CC[C@@H]32)c(=O)c2nc(N(C)C)cnc2n1CC(=O)Nc1ccc(C(F)(F)F)cc1Cl` [I-286, N-[2-chloro-4-(trifluoromethyl)phenyl]-2-{7-[(1S,6S)-5-(5-cyclopropyl-4-hydroxy-2-methoxypyridine-3-carbonyl)-2,5-diazabicyclo[4.2.0]octan-2-yl]-2-(dimethylamino)-6-ethyl-8-oxo-5H,8H-pyrido[2,3-b]pyrazin-5-yl} acetamide], for which the IC50 in assay [1] was in the range of 5 to 50 nM. Further, the EC50 in assay [2] is less than 500 nM.

As for `CCc1c(N2CCN(C(=O)c3c(OC)ncc(C4CCOC4)c3O)[C@H]3CC[C@@H]32)c(=O)c2nc(N(C)C)cnc2n1CC(=O)Nc1ccc(C(F)(F)F)cc1Cl` (stereo partly drawn) [I-287, N-[2-chloro-4-(trifluoromethyl)phenyl]-2-[2-(dimethylamino)-6-ethyl-7-[(1S,6S)-5-[4-hydroxy-2-methoxy-5-(oxolan-3-yl)pyridine-3-carbonyl]-2,5-diazabicyclo[4.2.0]octan-2-yl]-8-oxo-5H,8H-pyrido[2,3-b]pyrazin-5-yl]acetamide], the IC50 in assay [1] is 5 to 50 nM. Further, the EC50 in assay [2] was less than 500 nM.

As to `CCc1c(N2CCN(C(=O)c3ncnc(C)c3O)[C@H]3CC[C@@H]32)c(=O)c2nc(N(C)C3CCC(O)C3)cnc2n1CC(=O)Nc1ccc(C(F)(F)F)cc1Cl` (stereo partly drawn) [I-288, N-[2-chloro-4-(trifluoromethyl)phenyl]-2-{6-ethyl-7-[(1S,6S)-5-(5-hydroxy-6-methylpyrimidine-4-carbonyl)-2,5-diazabicyclo[4.2.0]octan-2-yl]-2-[(3-hydroxycyclopentyl)(methyl)amino]-8-oxo-5H,8H-pyrido[2,3-b]pyrazin-5-yl}acetamide], the IC50 in assay [1] fell in the range of 5 to 50 nM. Further, in assay [2], the EC50 is less than 500 nM.

Consider `CCc1c(N2CCN(C(=O)c3ncnc(C)c3O)[C@H]3CC[C@@H]32)c(=O)c2nc(N(C)C)cnc2n1CC(=O)Nc1ccc(OC)cc1Cl` [I-289, N-(2-chloro-4-methoxyphenyl)-2-[2-(dimethylamino)-6-ethyl-7-[(1S,6S)-5-(5-hydroxy-6-methylpyrimidine-4-carbonyl)-2,5-diazabicyclo[4.2.0]octan-2-yl]-8-oxo-5H,8H-pyrido[2,3-b]pyrazin-5-yl]acetamide], for which, in assay [1], the IC50 was in the range of 5 to 50 nM. In addition, in assay [2], the EC50 fell in the range of 500 to 2000 nM.
